According to US5693830A, “Process for preparing the spiropyrone compounds” (Tokuyama Corporation, priority 1994, dated 1997):

Assay: Photochromic properties of spiropyran compounds in methyl polymethacrylate film
Format: physicochemical
Conditions: for ε (60 sec.) -ε (0 sec.): absorbancy at max. absorption wavelength, irradiated 60 seconds minus not irradiated; for ε (60 sec.) -ε (0 sec.) / Developed color tone: 25° C.; for λ MAX (max. absorption wavelength): color-developing film, spectrophotometer 220A; for Developed color tone: film 1.0×10^-4 mol/g, 0.1 mm thick, mercury lamp, 10 cm, 60 seconds; for t1/2 (half-value period): time until absorbancy decreases to one-half {ε(60 sec)-ε(0 sec)} after irradiation for 60 seconds
Experimental: The concentration of the above compound contained in the film was adjusted to be 1.0×10^-4 mol/g and the thickness was adjusted to be 0.1 mm. The photochromic film was exposed to the light of a mercury lamp SHL-100 produced by Toshiba Co. at a temperature of 25° C.+1° C. from a distance of 10 cm for 60 seconds so as to develop a color, in order to measure its photochromic properties. The photochromic properties were expressed as described below.
Max. absorption wavelength (λmax)
λmax of the color-developing film was found by using a spectrophotometer 220A manufactured by Hitachi, Ltd.
Absorbancy of the film at a maximum absorption wavelength after irradiated with light for 60 seconds under the above-mentioned conditions.
Absorbancy of the film that is not irradiated with light at a maximum absorption wave of when it is irradiated with light.
Time needed until the absorbancy of the film decreases to one-half {ε(60 sec)-ε(0 sec)} after irradiated with light for 60 seconds.

Row | ε (60 sec.) -ε (0 sec.) | λ MAX (max. absorption wavelength) [nm] | Developed color tone | t1/2 (half-value period) [s] | Compound
1 | 0.6 | 480 | orange | 26 | CC1(C)CCC2(C)CC=CC1C21C=C(c2ccccc2)c2cccnc2O1 (stereo not shown) [compound 30]
2 | 0.7 | 406 | yellow | 26 | C1=CC2CCCC(C1)C21Oc2ccc3ccccc3c2C=C1CCc1ccccc1 (stereo not shown) [compound 34, 3'-Benzylmethylspiro(2-bicyclo[3,3,1]nonene-9,2'-(2H)benzo(f)chromene)]
3 | 0.6 | 410 | yellow | 18 | CCCC1=Cc2c(ccc3ccccc23)OC12C1C=CCC2CCC1 (stereo not shown) [compound 33, 3'-n-Propylspiro(2-bicyclo[3,3,1]nonene-9,2'-(2H)benzo(f)chromene)]
4 | 0.5 | 494 | orange | 11 | CCCCC1=CC2(Oc3c(C#N)cccc31)C1C=CCC2CCC1 (stereo not shown) [compound 29, 8'-Cyano-4'-n-butylspiro(2-bicyclo(3,3,1)nonene-9,2'-(2H)chromene)]
5 | 0.7 | 460 | yellow | 90 | CCCC12CC=CC(CCC1)C21C=C(CC)c2ccc3c(-c4ccccc4)cccc3c2O1 (stereo not shown) [compound 31, 7'-Phenyl-4'-ethyl-5-n-propylspiro(2-bicyclo[3,3,1]nonene-9,2'-(2H)benzo(h)chromene)]
6 | 0.7 | 440 | yellow | 17 | C1=CC2CCCC(C1)C21Oc2ccc3ccccc3c2C(c2ccccc2)=C1CCc1ccccc1 (stereo not shown) [compound 41, 3'-Benzylmethyl-4'-phenylspiro(2-bicyclo[3,3,1]nonene-9,2'-(2H)benzo(f)chromene)]
7 | 0.9 | 420 | yellow | 25 | COc1ccc(C2=Cc3c(ccc4ccccc34)OC23C2C=CCC3CCC2)cc1 (stereo not shown) [compound 36, 3'-p-methoxyphenylspiro(2-bicyclo[3,3,1]nonene-9,2'-(2H)benzo(f)chromene)]
8 | 0.5 | 415 | yellow | 22 | CCC1=Cc2c(cnc3ccccc23)OC12C1C=CCC2CCC1 (stereo not shown) [compound 37, 3'-Ethylspiro(2-bicyclo[3,3,1]nonene-9,2'-(2H)quino(3,4-b)pyran)]
9 | 0.6 | 465 | orange | 12 | CCC1=C(Cc2ccccc2)C2(Oc3scc(Br)c31)C1C=CCC2CCC1 (stereo not shown) [compound 39, 4'-Ethyl-3'-benzyl-5'-bromospiro(2-bicyclo[3,3,1]nonene-9,2'-(2H)thieno(2,3-b)pyran)]
10 | 0.9 | 402 | yellow | 16 | ClC12CC=CC(CCC1)C21C=C(Cc2ccccc2)c2c(cnc3ccccc23)O1 (stereo not shown) [compound 28, 5-Chloro-4'-benzylspiro(2-bicyclo(3,3,1)nonene-9,2'-(2H)quino(3,4-b)pyran)]
11 | 0.6 | 410 | yellow | 18 | CC(C)C1=Cc2c(ccc3ccccc23)OC12C1C=CCC2CCC1 (stereo not shown) [compound 35, 3'-i-Propylspiro(2-bicyclo[3,3,1]nonene-9,2'-(2H)benzo(f)chromene)]
12 | 1.0 | 450 | yellow | 28 | CCC1=C(CC)C2(Oc3c1ccc1ccccc31)C1C=CCC2CCC1 (stereo not shown) [compound 42, 3',4'-Diethylspiro(2-bicyclo[3,3,1]nonene-9,2'-(2H)benzo(h)chromene)]
13 | 0.8 | 420 | yellow | 14 | CCCC1=C(Cc2ccccc2)c2c(ccc3ccccc23)OC12C1C=CCC2CCC1 (stereo not shown) [compound 40, 3'-n-Propyl-4'-benzylspiro(2-bicyclo[3,3,1]nonene-9,2'-(2H)benzo(f)chromene)]

Row | Compound | ε (60 sec.) -ε (0 sec.) | λ MAX (max. absorption wavelength) [nm] | Developed color tone | t1/2 (half-value period) [s]
14 | Spiro(2-bicyclo(3,3,1)nonene-9,2'-(2H)methylpyrrolo(2,3-b)pyran) [compound 27] | 1.0 | 470 | orange | 48
15 | CCCCC1=CC2(Oc3c1ccc1ccccc31)C1C=CCC2CCC1 (stereo not shown) [compound 32, 4'-n-Butylspiro(2-bicyclo[3,3,1]nonene-9,2'-(2H)benzo(h)chromene)] | 0.8 | 445 | yellow | 110
16 | 3',4'-Dimethylspiro(2-bicyclo[3,3,1]nonene-9,2'-(2H)fluoro(2,3-b)pyran) [compound 38] | 0.6 | 430 | yellow | 10
